Source: patent US20240148821A1, “PHARMACEUTICAL USE OF CYCLIC PEPTIDE COMPOUND” (CHUGAI SEIYAKU KABUSHIKI KAISHA, priority 2021, published 2024)
Numbered stars: 1 amine (or outer) side, 2 acyl side, 3 side chain; on linkers, the order of the positions; unused ones are H or OH. Bridge positions count the residues as written; N and C are the ends. Square brackets hold non-standard residues; d marks the D form. Peptide text beside a SMILES is read from it. * marks the point of attachment. hPhe(3,5-F2-4-CF3) = N[C@@H](CCc1cc(F)c(C(F)(F)F)c(F)c1)C(=O)O; hPhe(3-Cl-4-CF3) = N[C@@H](CCc1ccc(C(F)(F)F)c(Cl)c1)C(=O)O; hPhe(3-F,4-CF3) = N[C@@H](CCc1ccc(C(F)(F)F)c(F)c1)C(=O)O; NMePhe(4-CF3) = CN[C@@H](Cc1ccc(C(F)(F)F)cc1)C(=O)O; 3Oxa8azabicyclo(3.2.1)octane = C1CC2COCC1N2*; NMePhe(4-Cl) = CN[C@@H](Cc1ccc(Cl)cc1)C(=O)O; X3 = O=C(CN(C1CC2(C1)CC(F)(F)C2)[*:1])[*:2]; NMePhe(2-Cl) = CN[C@@H](Cc1ccccc1Cl)C(=O)O; NMedβ3hAla = C[C@H](CC(=O)[*:2])N(C)[*:1]; NMeAla(cPent) = CN[C@@H](CC1CCCC1)C(=O)O; NMeGly(cPent) = CN[C@H](C(=O)O)C1CCCC1; NMe3Pal = CN[C@@H](Cc1cccnc1)C(=O)O; NMeCha = CN[C@@H](CC1CCCCC1)C(=O)O; Hyp = O=C(O)[C@@H]1C[C@@H](O)CN1; NMeChg = CN[C@H](C(=O)O)C1CCCCC1; NMeF = CN[C@@H](Cc1ccccc1)C(=O)O; NMeI = CC[C@H](C)[C@H](NC)C(=O)O; NMeD = CN[C@@H](CC(=O)O)C(=O)O; NMeL = CN[C@@H](CC(C)C)C(=O)O; Ala(CN) = N#CC[C@H](N)C(=O)O; NMeNva = CCC[C@H](NC)C(=O)O; NMeV = CN[C@H](C(=O)O)C(C)C; d(β3hA) = C[C@@H](N)CC(=O)O; Azetidin(1-yl) = C1CN(*)C1; NMeS = CN[C@@H](CO)C(=O)O; Ac6c = NC1(C(=O)O)CCCCC1; Morpholide = C1CN(*)CCO1; NMeA = CN[C@@H](C)C(=O)O; Piperidide = C1CCN(*)CC1; Pyrrolidide = C1CCN(*)C1; dNMeA = CN[C@H](C)C(=O)O; Ac5c = NC1(C(=O)O)CCCC1; Aze = O=C(O)[C@@H]1CCN1; NEtG = CCNCC(=O)O; Sar = CNCC(=O)O; Propyl = CCC*

Key:
[1] = tested on: Human pancreatic cancer cell line AsPC-1 (G12D mutation Kras); experiment: AsPC-1 cell growth inhibition (AsPC-1 CGI); format: cell-based; conditions: read-out: AsPC-1 cell growth inhibition, 50% growth inhibitory concentration (IC50 value); 96 hours, CellTiter-Glo, values classified in ranges
[2] = molecular target: protein-protein interaction between Kras and SOS1 (biotin-tagged human Kras loaded with GDP, His-tagged human SOS1) (Homo sapiens (Human), UniProt P01116, G12D); experiment: Protein-protein interaction inhibition between Kras and SOS1 (KrasG12D-SOS PPI) using AlphaScreen; format: biochemical; conditions: AlphaScreen; biotin-tagged human Kras loaded with GDP, His-tagged human SOS1; read-out: KRAS G12D-SOS PPI IC50;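 also: kras produced in E. coli, Ni-coupled donor beads and streptavidin acceptor beads, excitation 680 nm with emission detected at 520–620 nm via singlet oxygen transfer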

Row | SMILES | IC50 [1] | IC50 [2]
1 | CC[C@H](C)[C@@H]1NC(=O)[C@H](CC(C)C)N(C)C(=O)C[C@@H](C(=O)N2CCCCC2)N(C)C(=O)[C@H](C2CCCCC2)N(C)C(=O)C2(CCCC2)NC(=O)CN(C2CC3(C2)CC(F)(F)C3)C(=O)[C@H](CCc2ccc(C(F)(F)F)c(Cl)c2)NC(=O)CN(C)C(=O)[C@H](CC2CCCCC2)N(C)C(=O)CN(C)C(=O)CN(C)C1=O [Compound 2035, (11S,17S,26S,29S,33S,36S)-11-[2-[3-chloro-4-(trifluoromethyl)phenyl]ethyl]-36-cyclohexyl-17-(cyclohexylmethyl)-9-(2,2-difluorospiro[3.3]heptan-6-yl)-29-isobutyl-15,18,21,24,30,34,37-heptamethyl-26-[(1S)-1-methylpropyl]-33-(piperidine,-1-carbonyl)-6,9,12,15,18,21,24,27,30,34,37-undecazaspiro[4.33]octatriacontane-7,10,13,16,19,22,25,28,31,35,38-undecone] ([NMeL]I[Sar][Sar][NMeCha][Sar][hPhe(3-Cl-4-CF3)][X3][Ac5c][NMeChg][NMeD]-Piperidide; lactam N-11) | > 500 nM | 24 nM
2 | CCO[C@@H]1C[C@H]2C(=O)NC3(CCCC3)C(=O)N(C)[C@@H](C3CCCC3)C(=O)N(C)[C@H](C)CC(=O)N(C)[C@@H](CC(C)C)C(=O)N[C@@H]([C@@H](C)CC)C(=O)N(C)[C@@H](C)C(=O)N3CC[C@H]3C(=O)N(C)[C@@H](Cc3ccc(C(F)(F)F)cc3)C(=O)N(C)CC(=O)N[C@@H](CCc3ccc(C(F)(F)F)c(Cl)c3)C(=O)N2C1 [Compound 640] (cyclo([Ac5c][NMeGly(cPent)][NMedβ3hAla][NMeL]I[NMeA][Aze][NMePhe(4-CF3)][Sar][hPhe(3-Cl-4-CF3)][Hyp](Et))) | ≤ 20 nM | 0.86 nM
3 | CCCOC[C@H]1C(=O)N(C)CC(=O)N[C@@H](CCc2ccc(C(F)(F)F)c(Cl)c2)C(=O)N2CCC[C@H]2C(=O)NC2(CCCC2)C(=O)N(C)[C@@H](C2CCCC2)C(=O)N(C)[C@H](C(=O)N2C3CCC2COC3)CC(=O)N(C)[C@@H](CC(C)C)C(=O)N[C@@H]([C@@H](C)CC)C(=O)N(C)[C@@H](C)C(=O)N2CC[C@H]2C(=O)N1C [Compound 176] ([NMeL]I[NMeA][Aze][NMeS](Propyl)[Sar][hPhe(3-Cl-4-CF3)]P[Ac5c][NMeGly(cPent)][NMeD]-{3Oxa8azabicyclo(3.2.1)octane}; lactam N-11) | ≤ 20 nM | 1.4 nM
4 | CC(C)C[C@H]1C(=O)N[C@@H](CC#N)C(=O)N(C)[C@@H](C)C(=O)N2CC[C@H]2C(=O)N(C)[C@@H](CC2CCCCC2)C(=O)N(C)CC(=O)N[C@@H](CCc2ccc(C(F)(F)F)c(Cl)c2)C(=O)N2CCC[C@H]2C(=O)NC2(CCCC2)C(=O)N(C)[C@@H](C(C)C)C(=O)N(C)[C@H](C(=O)N2CCCCC2)CC(=O)N1C [Compound 278] ([NMeL][Ala(CN)][NMeA][Aze][NMeCha][Sar][hPhe(3-Cl-4-CF3)]P[Ac5c][NMeV][NMeD]-Piperidide; lactam N-11) | > 500 nM | 25 nM
5 | CC[C@H](C)[C@@H]1NC(=O)[C@H](CC(C)C)N(C)C(=O)C[C@@H](C(=O)N2CCOCC2)N(C)C(=O)[C@H](C2CCCC2)N(C)C(=O)C2(CCCC2)NC(=O)[C@@H]2CCCN2C(=O)[C@H](CCc2cc(F)c(C(F)(F)F)c(F)c2)NC(=O)CN(C)C(=O)[C@H](CC2CCCCC2)N(C)C(=O)[C@@H]2CCN2C(=O)[C@H](C)N(C)C1=O [Compound 1308] ([NMeL]I[NMeA][Aze][NMeCha][Sar][hPhe(3,5-F2-4-CF3)]P[Ac5c][NMeGly(cPent)][NMeD]-Morpholide; lactam N-11) | ≤ 20 nM | 0.65 nM
6 | CC[C@H](C)[C@@H]1NC(=O)[C@H](CC(C)C)N(C)C(=O)C[C@@H](C(=O)N2CCCCC2)N(C)C(=O)[C@H](C(C)C)N(C)C(=O)C2(CCCCC2)NC(=O)[C@@H]2CCCN2C(=O)[C@H](CCc2ccc(C(F)(F)F)c(Cl)c2)NC(=O)CN(C)C(=O)[C@H](CC2CCCCC2)N(C)C(=O)[C@@H]2CCN2C(=O)[C@H](C)N(C)C1=O [Compound 1708] ([NMeL]I[NMeA][Aze][NMeCha][Sar][hPhe(3-Cl-4-CF3)]P[Ac6c][NMeV][NMeD]-Piperidide; lactam N-11) | > 500 nM | 10 nM
7 | CCC[C@H]1C(=O)N[C@@H]([C@@H](C)CC)C(=O)N(C)CC(=O)N(C)CC(=O)N(C)[C@@H](CC2CCCC2)C(=O)N(C)CC(=O)N[C@@H](CCc2ccc(C(F)(F)F)c(Cl)c2)C(=O)N(C)[C@@H](Cc2cccnc2)C(=O)NC2(CCCC2)C(=O)N(C)[C@@H](C2CCCCC2)C(=O)N(C)[C@H](C(=O)N2CCCC2)CC(=O)N1C [Compound 1946] ([NMeNva]I[Sar][Sar][NMeAla(cPent)][Sar][hPhe(3-Cl-4-CF3)][NMe3Pal][Ac5c][NMeChg][NMeD]-Pyrrolidide; lactam N-11) | > 500 nM | 1.5 nM
8 | CC[C@H](C)[C@@H]1NC(=O)[C@H](CC2CCCC2)N(C)C(=O)C[C@@H](C(=O)N2CCOCC2)N(C)C(=O)[C@H]([C@@H](C)CC)N(C)C(=O)C2(CCCC2)NC(=O)[C@@H]2CCCN2C(=O)[C@H](CCc2ccc(C(F)(F)F)c(Cl)c2)NC(=O)CN(C)C(=O)[C@H](Cc2ccc(C(F)(F)F)cc2)N(C)C(=O)[C@@H]2CCN2C(=O)[C@H](C)NC1=O [Compound 1371] ([NMeAla(cPent)]IA[Aze][NMePhe(4-CF3)][Sar][hPhe(3-Cl-4-CF3)]P[Ac5c][NMeI][NMeD]-Morpholide; lactam N-11) | ≤ 20 nM | 1.6 nM
9 | CC[C@H](C)[C@@H]1NC(=O)[C@H](CC2CCCC2)N(C)C(=O)C[C@@H](C(=O)N2CCC2)N(C)C(=O)[C@H](C2CCCC2)N(C)C(=O)C2(CCCC2)NC(=O)[C@@H]2CCCN2C(=O)[C@H](CCc2ccc(C(F)(F)F)c(Cl)c2)NC(=O)CN(C)C(=O)[C@H](CC2CCCCC2)N(C)C(=O)[C@@H]2CCN2C(=O)[C@H](C)N(C)C1=O [Compound 1199] ([NMeAla(cPent)]I[NMeA][Aze][NMeCha][Sar][hPhe(3-Cl-4-CF3)]P[Ac5c][NMeGly(cPent)][NMeD]-{Azetidin(1-yl)}; lactam N-11) | ≤ 20 nM | 0.7 nM
10 | CC[C@H](C)[C@@H]1NC(=O)[C@H](C)N(C)C(=O)C[C@@H](C)NC(=O)[C@H](C2CCCC2)N(C)C(=O)C2(CCCC2)NC(=O)[C@@H]2CCCN2C(=O)[C@H](CCc2ccc(C(F)(F)F)c(Cl)c2)NC(=O)[C@@H](C)N(C)C(=O)[C@H](Cc2ccc(Cl)cc2)N(C)C(=O)[C@@H]2CCN2C(=O)[C@H](C)N(C)C1=O [Compound 720] (cyclo([Ac5c][NMeGly(cPent)][d(β3hA)][NMeA]I[NMeA][Aze][NMePhe(4-Cl)][dNMeA][hPhe(3-Cl-4-CF3)]P)) | > 500 nM | 39 nM
11 | CC[C@H](C)[C@@H]1NC(=O)[C@H](CC(C)C)N(C)C(=O)C[C@@H](C(=O)N(C)C)N(C)C(=O)[C@H](C2CCCC2)N(C)C(=O)C2(CCCC2)NC(=O)[C@@H]2CCCN2C(=O)[C@H](CCc2ccc(C(F)(F)F)c(F)c2)NC(=O)CN(CC)C(=O)[C@H](CC2CCCCC2)N(C)C(=O)[C@@H]2CCN2C(=O)[C@H](C)N(C)C1=O [Compound 1205] ([NMeL]I[NMeA][Aze][NMeCha][NEtG][hPhe(3-F,4-CF3)]P[Ac5c][NMeGly(cPent)][NMeD]-NMe2; lactam N-11) | ≤ 20 nM | 2.8 nM
12 | CCCOC[C@H]1C(=O)N(C)CC(=O)N[C@@H](CCc2ccc(C(F)(F)F)c(Cl)c2)C(=O)N2CCC[C@H]2C(=O)NC2(CCCC2)C(=O)N(C)[C@@H]([C@@H](C)CC)C(=O)N(C)[C@H](C(=O)N2CCCCC2)CC(=O)N(C)[C@@H](CC(C)C)C(=O)N[C@@H]([C@@H](C)CC)C(=O)N(C)[C@@H](C)C(=O)N2CC[C@H]2C(=O)N1C [Compound 690] ([NMeL]I[NMeA][Aze][NMeS](Propyl)[Sar][hPhe(3-Cl-4-CF3)]P[Ac5c][NMeI][NMeD]-Piperidide; lactam N-11) | ≤ 20 nM | 1.8 nM
13 | CC[C@H](C)[C@@H]1NC(=O)[C@H](CC(C)C)N(C)C(=O)C[C@@H](C(=O)N(C)C)N(C)C(=O)[C@H](C2CCCC2)N(C)C(=O)[C@H](C(C)C)NC(=O)[C@@H]2CCCN2C(=O)[C@H](CCc2ccc(C(F)(F)F)c(Cl)c2)NC(=O)CN(C)C(=O)[C@H](CC2CCCCC2)N(C)C(=O)[C@@H]2CCN2C(=O)[C@H](C)N(C)C1=O [Compound 1010] ([NMeL]I[NMeA][Aze][NMeCha][Sar][hPhe(3-Cl-4-CF3)]PV[NMeGly(cPent)][NMeD]-NMe2; lactam N-11) | > 500 nM | 4.3 nM
14 | CC[C@H](C)[C@@H]1NC(=O)[C@H](C)N(C)C(=O)C[C@@H](C)NC(=O)[C@H](C(C)C)N(C)C(=O)[C@H](Cc2ccccc2)N(C)C(=O)[C@H](CC(C)C)N(C)C(=O)[C@H](CCc2ccc(C(F)(F)F)c(F)c2)NC(=O)CN(C)C(=O)[C@H](Cc2ccc(Cl)cc2)N(C)C(=O)CN(C)C(=O)CN(C)C1=O [Compound 1105] (cyclo(I[Sar][Sar][NMePhe(4-Cl)][Sar][hPhe(3-F,4-CF3)][NMeL][NMeF][NMeV][d(β3hA)][NMeA])) | > 500 nM | 21 nM
15 | CC[C@H](C)[C@@H]1NC(=O)[C@H](C)N(C)C(=O)C[C@@H](C(=O)N2CCCCC2)N(C)C(=O)[C@H](C(C)C)N(C)C(=O)C2(CCCC2)NC(=O)[C@H](Cc2ccccc2Cl)N(C)C(=O)[C@H](CCc2ccc(C(F)(F)F)c(Cl)c2)NC(=O)CN(C)C(=O)[C@H](CC2CCCCC2)N(C)C(=O)CN(C)C(=O)CN(C)C1=O [Compound 963] ([NMeA]I[Sar][Sar][NMeCha][Sar][hPhe(3-Cl-4-CF3)][NMePhe(2-Cl)][Ac5c][NMeV][NMeD]-Piperidide; lactam N-11) | > 500 nM | 13 nM
